# Laboratory results: ChEMBL document CHEMBL4033689, “Potential inhibitors of human carbonic anhydrase isozymes I and II: Design, synthesis and docking studies of new 1,3,4-thiadiazole derivatives” (Bioorg Med Chem, 2017)
# Biological target: Carbonic anhydrase 2 (Homo sapiens, UniProt P00918)
# Experiment: Inhibition of carbonic anhydrase-2 in […] assessed as reduction in H+ release using CO2 as substrate by bromine thymol blue indicator based assay; call rule not given here
row,Structure (SMILES),IC50
1,O=C(CSc1nnc(Nc2ccccc2)s1)N/N=C/c1ccc(-c2ccc(Cl)cc2[N+](=O)[O-])o1,Not Active
2,O=C(CSc1nnc(Nc2ccccc2)s1)N/N=C/c1ccc(-c2ccc([N+](=O)[O-])cc2)o1,Not Active
3,O=C(CSc1nnc(Nc2ccccc2)s1)N/N=C/c1ccc(-c2ccc(Cl)c(Cl)c2)o1,Not Active
